In article PMC2634962, “Poisoning Pyridoxal 5-Phosphate-Dependent Enzymes: A New Strategy to Target the Malaria Parasite Plasmodium falciparum” (PLoS ONE, 2009):

Columns and labels:
[1] = target: T1, PfPdxK (pyridoxine/pyridoxal kinase) (Plasmodium falciparum, UniProt C6KT01); test: kinase assay with [γ-33P]-ATP, recombinant purified PfPdxK, specific activity; type: biochemical
T1 construct: gene PF3D7_0616000; recombinant, strep tag

[2] = target: T2, PfODC (bifunctional P. falciparum AdoMetDC/ODC) (Plasmodium falciparum, UniProt Q8IJ77); test: […]CO2 release from […]-L-ornithine by recombinant PfODC/AdoMetDC with […] PLP; type: biochemical; settings: read-out: Inhibition of PfODC activity IC50-value [μM] ^a)
T2 construct: gene PF3D7_1033100; recombinant bifunctional P. falciparum AdoMetDC/ODC, strep tag
T2 sequence (Q8IJ77 1-72): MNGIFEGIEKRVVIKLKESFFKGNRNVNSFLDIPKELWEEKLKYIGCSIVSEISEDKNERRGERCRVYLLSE
T2 sequence (Q8IJ77 73-1434): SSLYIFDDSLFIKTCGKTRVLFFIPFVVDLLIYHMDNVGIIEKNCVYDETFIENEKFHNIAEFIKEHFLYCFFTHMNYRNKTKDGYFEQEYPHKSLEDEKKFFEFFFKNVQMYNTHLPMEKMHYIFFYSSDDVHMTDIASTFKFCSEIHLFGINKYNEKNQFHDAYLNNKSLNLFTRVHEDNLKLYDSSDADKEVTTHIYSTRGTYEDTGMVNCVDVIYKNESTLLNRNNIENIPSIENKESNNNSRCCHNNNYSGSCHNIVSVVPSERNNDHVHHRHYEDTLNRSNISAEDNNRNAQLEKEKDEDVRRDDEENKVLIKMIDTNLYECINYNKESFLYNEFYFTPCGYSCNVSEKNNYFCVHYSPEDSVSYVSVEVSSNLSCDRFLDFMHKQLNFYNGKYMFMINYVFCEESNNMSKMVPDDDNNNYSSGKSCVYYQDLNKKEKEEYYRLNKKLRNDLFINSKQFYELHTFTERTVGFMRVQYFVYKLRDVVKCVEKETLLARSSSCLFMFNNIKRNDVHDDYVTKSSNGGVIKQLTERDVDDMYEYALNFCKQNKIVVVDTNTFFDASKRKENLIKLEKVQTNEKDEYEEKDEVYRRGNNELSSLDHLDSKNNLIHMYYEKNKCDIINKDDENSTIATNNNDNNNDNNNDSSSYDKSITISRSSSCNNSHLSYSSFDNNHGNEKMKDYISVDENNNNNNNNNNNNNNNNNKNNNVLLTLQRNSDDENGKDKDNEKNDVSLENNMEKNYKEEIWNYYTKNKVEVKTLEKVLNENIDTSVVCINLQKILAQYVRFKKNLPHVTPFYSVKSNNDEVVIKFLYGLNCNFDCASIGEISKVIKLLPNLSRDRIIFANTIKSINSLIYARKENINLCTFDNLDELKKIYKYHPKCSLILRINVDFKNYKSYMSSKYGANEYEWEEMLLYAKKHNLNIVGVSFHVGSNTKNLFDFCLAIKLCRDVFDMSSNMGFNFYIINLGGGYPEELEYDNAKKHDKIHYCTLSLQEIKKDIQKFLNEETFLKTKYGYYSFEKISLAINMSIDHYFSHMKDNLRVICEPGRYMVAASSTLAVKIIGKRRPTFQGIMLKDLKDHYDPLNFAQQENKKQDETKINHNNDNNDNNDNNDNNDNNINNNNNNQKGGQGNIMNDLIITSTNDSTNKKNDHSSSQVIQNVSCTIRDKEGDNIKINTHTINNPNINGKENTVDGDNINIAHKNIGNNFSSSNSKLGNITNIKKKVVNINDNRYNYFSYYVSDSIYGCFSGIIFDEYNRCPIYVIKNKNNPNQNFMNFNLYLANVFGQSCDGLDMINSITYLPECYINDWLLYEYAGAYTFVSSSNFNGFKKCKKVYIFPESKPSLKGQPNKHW

T1 sequence (C6KT01 entry or part of it): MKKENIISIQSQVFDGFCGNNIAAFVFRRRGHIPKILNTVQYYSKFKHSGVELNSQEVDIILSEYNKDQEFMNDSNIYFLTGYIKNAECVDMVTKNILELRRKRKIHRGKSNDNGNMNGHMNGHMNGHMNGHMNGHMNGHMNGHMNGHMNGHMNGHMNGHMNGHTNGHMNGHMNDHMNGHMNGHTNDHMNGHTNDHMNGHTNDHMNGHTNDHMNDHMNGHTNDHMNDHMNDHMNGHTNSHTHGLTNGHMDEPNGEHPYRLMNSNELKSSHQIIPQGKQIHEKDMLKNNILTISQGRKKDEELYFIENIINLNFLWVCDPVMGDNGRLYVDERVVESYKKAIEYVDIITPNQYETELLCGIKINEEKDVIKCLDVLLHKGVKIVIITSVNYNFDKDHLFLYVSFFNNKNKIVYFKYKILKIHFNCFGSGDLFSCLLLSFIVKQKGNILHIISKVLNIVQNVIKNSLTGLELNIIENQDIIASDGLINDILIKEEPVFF

IC50 [2] [µM] | SMILES | Specific activity of PfPdxK (nmol min^-1 mg^-1) ^a) [1] [nmol/min/mg]
– | COC(=O)C(Cc1c[nH]c2ccccc12)NCc1c(CO)cnc(C)c1O (centres unmarked) [PT5] | 20 ± 2
58 ± 11 | COC(=O)C(Cc1c[nH]cn1)NCc1c(COP(=O)(O)O)cnc(C)c1O (centres unmarked) [PPHME] | –
64 ± 13 | COC(=O)C(Cc1c[nH]c2ccccc12)NCc1c(COP(=O)(O)O)cnc(C)c1O (centres unmarked) [PPT5] | –
– | COC(=O)[C@@H]1Cc2c([nH]c3ccccc23)[C@H](c2c(CO)cnc(C)c2O)N1 [PT3] | 38 ± 4
– | COC(=O)C(Cc1c[nH]cn1)NCc1c(CO)cnc(C)c1O (centres unmarked) [PHME] | 64 ± 4
